Here are results for two molecules from article PMC8953834, “A Helquat-like Compound as a Potent Inhibitor of Flaviviral and Coronaviral Polymerases” (Molecules, 2022).

Each structure is given as a SMILES string. Bounds are passed on as bounds.

Series [1] in a line: in vitro. The settings on record: pig.
Series [2] deals with TBEV (strain Hypr). The series is described as follows: microbe, parasite or virus in culture. Type of series: cell-based, tick-borne encephalitis virus. The settings on record: for EC50: Tick-borne encephalitis virus, 48 h, read-out: EC50, anti-TBEV activity.
Series [3] addresses YFV RdRp (Yellow fever virus, UniProt P03314). Kind of series: biochemical.
In series [4] the test system is flaviviral RdRp. Type of series: biochemical, Flaviviridae (JEV, NTAV, TBEV, YFV, ZIKV).
In series [5] the test system is Caco-2 cells. The series is described as follows: Cytotoxicity (XTT) in Caco-2 cells.
Series [6] is described as follows: Cytotoxicity (XTT) in Caco-2 cells. Particulars: human.
In series [7] the test system is SARS-CoV-2. It counts as cell-based.
Series [8] concerns the target NTAV RdRp (Ntaya virus, UniProt K0BRZ6). Kind of series: Radioactive polymerase assay (IC50), NTAV RdRp. Type of series: biochemical. Particulars: radioactively labeled elongation products, [α-32P]-ATP, hairpin RNA.
The test system of series [9] is SARS-CoV-2. Kind of series: Anti-SARS-CoV-2 cytopathic effect (CPE)-based assay in Calu-3 cells. Type of series: cell-based. Particulars: Severe acute respiratory syndrome coronavirus 2, 72 h, MOI 0.04, 3 days, XTT, read-out: EC50, inhibition of virus-induced CPE. A general note: Protection from cytopathic effect is a common read-out in antiviral testing.
Series [10] has as its target T1, SARS-CoV-2 RdRp (nsp7, nsp8 and nsp12) (Severe acute respiratory syndrome coronavirus 2, UniProt P0DTD1).
T1 construct: except for the full length nsp12 protein, which was expressed in insect cells; His6 (C); made in house; host or cells: nsp12 in insect cells; nsp7 and nsp8 in E. coli BL-21 CodonPlus (DE3)-RIL
It counts as biochemical.

The test system of series [11] is Calu-3 cells. The series is described as follows: Cytotoxicity (XTT) in Calu-3 cells.
The nature of series [12]: Cytotoxicity (XTT) in Calu-3 cells. The settings on record: human. For orientation: Tetrazolium assays rely on reduction of a dye to a coloured formazan, in cell work by metabolically active cells.
For series [13], the system named is VERO-E6 cells. The series is described as follows: Cytotoxicity (XTT) in VERO-E6 cells. Particulars: 3 days.
Series [14] addresses T2, WNV RdRp (West Nile virus, UniProt Q9Q6P4).
T2 construct: NS5 proteins and SARS-CoV-2 nsp12, nsp8 and nsp7 were expressed with appropriate purification and folding tags; His6-TEV site (N); made in house; host or cells: E. coli BL-21 CodonPlus (DE3)-RIL
Kind of series: biochemical.

The target of series [15] is TBEV RdRp (Tick-borne encephalitis virus, UniProt Q01299). The series is described as follows: biochemical.
Series [16] concerns the target T3, SARS-CoV-2 RdRp (Severe acute respiratory syndrome coronavirus 2, UniProt P0DTD1).
T3 construct: except for the full length nsp12 protein, which was expressed in insect cells; His6 (C); made in house; host or cells: nsp12 in insect cells; nsp7 and nsp8 in E. coli BL-21 CodonPlus (DE3)-RIL
Kind of series: biochemical.

The target in series [17] is ZIKV RdRp (Zika virus, UniProt A0A1L5YKZ2). The series is described as follows: Radioactive polymerase assay (IC50), ZIKV RdRp. The settings on record: radioactively labeled elongation products, [α-32P]-ATP, hairpin RNA. Type of series: biochemical.
In series [18] the target is T4, JEV RdRp (Japanese encephalitis virus, UniProt P32886).
T4 construct: NS5 proteins and SARS-CoV-2 nsp12, nsp8 and nsp7 were expressed with appropriate purification and folding tags; His6-TEV site (N); made in house; host or cells: E. coli BL-21 CodonPlus (DE3)-RIL
Kind of series: biochemical.

In series [19] the test system is SARS-CoV-2. The series is described as follows: Anti-SARS-CoV-2 immunofluorescence assay (IFA) in VERO-E6 cells. It counts as cell-based. Particulars: Severe acute respiratory syndrome coronavirus 2, Vero C1008, 72 h, MOI 0.02, 3 days, read-out: EC50, inhibition of SARS-CoV-2 (nucleoprotein IFA).
The test system of series [20] is SARS-CoV-2. Kind of series: Anti-SARS-CoV-2 immunofluorescence assay (IFA) in Caco-2 cells. It counts as cell-based. The settings on record: Severe acute respiratory syndrome coronavirus 2, MOI 0.002, read-out: EC50, inhibition of SARS-CoV-2 replication (nucleoprotein IFA).
For series [21], the system named is SARS-CoV-2. The series is described as follows: SARS-CoV-2 yield reduction assay (plaque assay) in VERO-E6 cells. It counts as cell-based. The settings on record: MOI 0.04, 3 days.

T4 sequence (P32886 2528-3432 limits assumed): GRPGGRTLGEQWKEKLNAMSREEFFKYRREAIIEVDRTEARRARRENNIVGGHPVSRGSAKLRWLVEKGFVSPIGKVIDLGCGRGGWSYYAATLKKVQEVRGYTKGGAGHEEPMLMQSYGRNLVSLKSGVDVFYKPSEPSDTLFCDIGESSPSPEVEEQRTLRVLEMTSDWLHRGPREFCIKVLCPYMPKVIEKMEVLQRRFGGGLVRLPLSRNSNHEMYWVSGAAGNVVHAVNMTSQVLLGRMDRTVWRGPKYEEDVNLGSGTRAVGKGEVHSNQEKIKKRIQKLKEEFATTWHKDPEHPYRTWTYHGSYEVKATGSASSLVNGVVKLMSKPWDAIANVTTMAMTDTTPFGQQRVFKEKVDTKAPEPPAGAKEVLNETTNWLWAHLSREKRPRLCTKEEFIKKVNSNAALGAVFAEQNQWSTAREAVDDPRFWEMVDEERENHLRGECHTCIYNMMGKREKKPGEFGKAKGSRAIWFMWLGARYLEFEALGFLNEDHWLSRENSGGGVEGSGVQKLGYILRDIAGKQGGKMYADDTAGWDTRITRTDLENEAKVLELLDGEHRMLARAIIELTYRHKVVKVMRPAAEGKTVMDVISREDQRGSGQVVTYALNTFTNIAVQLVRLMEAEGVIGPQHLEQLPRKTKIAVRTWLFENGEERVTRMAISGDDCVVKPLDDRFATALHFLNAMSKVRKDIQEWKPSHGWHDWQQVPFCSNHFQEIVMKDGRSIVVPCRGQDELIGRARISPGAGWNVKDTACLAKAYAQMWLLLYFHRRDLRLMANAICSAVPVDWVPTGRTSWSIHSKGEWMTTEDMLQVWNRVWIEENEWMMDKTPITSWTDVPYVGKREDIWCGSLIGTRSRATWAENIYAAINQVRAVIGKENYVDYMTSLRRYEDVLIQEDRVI
Chain of YFV RdRp (P03314 2507-3411 limits assumed): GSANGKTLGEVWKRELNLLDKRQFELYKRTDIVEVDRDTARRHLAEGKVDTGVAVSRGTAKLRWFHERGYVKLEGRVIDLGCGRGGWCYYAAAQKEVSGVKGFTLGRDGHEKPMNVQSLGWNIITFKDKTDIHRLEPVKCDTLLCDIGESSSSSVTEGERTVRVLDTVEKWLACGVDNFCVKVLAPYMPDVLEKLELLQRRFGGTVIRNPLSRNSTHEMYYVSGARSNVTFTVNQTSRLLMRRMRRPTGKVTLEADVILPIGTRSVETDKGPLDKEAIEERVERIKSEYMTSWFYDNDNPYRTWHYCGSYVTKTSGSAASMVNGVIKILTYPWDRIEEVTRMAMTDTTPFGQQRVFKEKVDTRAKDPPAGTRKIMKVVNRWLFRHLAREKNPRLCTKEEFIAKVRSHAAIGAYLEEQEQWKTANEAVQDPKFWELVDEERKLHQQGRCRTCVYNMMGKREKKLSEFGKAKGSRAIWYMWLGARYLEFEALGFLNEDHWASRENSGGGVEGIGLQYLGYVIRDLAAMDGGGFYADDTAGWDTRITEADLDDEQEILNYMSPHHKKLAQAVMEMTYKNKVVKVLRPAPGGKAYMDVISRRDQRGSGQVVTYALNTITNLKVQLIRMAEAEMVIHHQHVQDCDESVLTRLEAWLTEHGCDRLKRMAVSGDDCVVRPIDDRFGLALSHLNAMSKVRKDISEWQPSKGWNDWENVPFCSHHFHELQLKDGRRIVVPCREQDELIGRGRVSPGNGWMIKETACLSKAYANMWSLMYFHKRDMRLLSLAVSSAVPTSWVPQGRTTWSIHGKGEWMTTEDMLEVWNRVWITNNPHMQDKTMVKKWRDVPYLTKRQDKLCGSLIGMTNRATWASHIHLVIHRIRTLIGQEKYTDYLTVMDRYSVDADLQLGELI
T2 sequence (Q9Q6P4 2529-3433 limits assumed): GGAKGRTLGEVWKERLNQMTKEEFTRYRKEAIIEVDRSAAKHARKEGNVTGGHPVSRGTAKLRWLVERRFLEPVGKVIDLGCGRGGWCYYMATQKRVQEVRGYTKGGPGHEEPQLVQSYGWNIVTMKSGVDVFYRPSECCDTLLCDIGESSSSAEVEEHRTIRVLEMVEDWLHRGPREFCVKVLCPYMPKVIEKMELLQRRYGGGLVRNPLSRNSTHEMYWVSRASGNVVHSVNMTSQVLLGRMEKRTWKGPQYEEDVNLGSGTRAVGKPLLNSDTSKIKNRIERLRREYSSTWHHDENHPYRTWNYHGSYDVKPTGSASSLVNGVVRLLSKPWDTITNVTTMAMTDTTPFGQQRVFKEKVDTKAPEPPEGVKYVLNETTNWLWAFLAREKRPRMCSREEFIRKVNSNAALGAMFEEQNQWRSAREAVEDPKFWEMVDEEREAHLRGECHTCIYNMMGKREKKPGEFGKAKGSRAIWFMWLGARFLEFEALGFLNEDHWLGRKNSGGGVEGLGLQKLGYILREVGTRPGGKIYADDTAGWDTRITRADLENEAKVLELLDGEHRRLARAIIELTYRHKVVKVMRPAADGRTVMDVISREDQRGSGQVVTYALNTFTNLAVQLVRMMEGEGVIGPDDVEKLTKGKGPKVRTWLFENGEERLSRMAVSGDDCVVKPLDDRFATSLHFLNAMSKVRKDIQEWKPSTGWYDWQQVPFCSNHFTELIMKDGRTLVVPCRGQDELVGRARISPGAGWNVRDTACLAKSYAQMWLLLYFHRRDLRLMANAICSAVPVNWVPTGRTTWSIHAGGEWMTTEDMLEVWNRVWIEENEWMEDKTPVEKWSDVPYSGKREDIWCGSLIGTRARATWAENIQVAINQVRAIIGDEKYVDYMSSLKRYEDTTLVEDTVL
Chain of TBEV RdRp (Q01299 2512-3414 limits assumed): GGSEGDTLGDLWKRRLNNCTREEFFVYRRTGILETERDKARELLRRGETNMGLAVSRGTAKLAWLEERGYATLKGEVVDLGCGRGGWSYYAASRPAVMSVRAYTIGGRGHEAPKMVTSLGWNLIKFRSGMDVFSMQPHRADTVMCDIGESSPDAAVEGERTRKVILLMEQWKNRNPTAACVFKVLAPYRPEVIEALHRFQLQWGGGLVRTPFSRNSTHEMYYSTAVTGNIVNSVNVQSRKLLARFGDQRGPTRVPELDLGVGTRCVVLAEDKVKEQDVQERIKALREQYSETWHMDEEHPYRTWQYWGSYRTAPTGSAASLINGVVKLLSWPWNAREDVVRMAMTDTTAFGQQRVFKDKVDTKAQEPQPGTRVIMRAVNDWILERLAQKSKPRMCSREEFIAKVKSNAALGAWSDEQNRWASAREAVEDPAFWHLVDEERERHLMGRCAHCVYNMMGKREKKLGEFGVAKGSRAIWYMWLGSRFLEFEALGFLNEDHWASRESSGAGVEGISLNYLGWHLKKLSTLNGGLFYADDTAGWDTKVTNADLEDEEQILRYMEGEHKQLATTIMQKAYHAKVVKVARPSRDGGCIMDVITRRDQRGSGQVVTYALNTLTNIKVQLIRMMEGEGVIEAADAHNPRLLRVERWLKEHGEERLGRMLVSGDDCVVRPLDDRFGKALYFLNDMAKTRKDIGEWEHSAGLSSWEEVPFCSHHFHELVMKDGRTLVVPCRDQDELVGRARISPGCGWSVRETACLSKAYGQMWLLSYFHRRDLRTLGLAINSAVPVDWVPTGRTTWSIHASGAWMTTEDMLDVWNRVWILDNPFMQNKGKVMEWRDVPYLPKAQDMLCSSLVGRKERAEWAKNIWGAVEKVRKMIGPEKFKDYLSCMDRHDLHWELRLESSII
Chain of ZIKV RdRp (A0A1L5YKZ2 2521-3423): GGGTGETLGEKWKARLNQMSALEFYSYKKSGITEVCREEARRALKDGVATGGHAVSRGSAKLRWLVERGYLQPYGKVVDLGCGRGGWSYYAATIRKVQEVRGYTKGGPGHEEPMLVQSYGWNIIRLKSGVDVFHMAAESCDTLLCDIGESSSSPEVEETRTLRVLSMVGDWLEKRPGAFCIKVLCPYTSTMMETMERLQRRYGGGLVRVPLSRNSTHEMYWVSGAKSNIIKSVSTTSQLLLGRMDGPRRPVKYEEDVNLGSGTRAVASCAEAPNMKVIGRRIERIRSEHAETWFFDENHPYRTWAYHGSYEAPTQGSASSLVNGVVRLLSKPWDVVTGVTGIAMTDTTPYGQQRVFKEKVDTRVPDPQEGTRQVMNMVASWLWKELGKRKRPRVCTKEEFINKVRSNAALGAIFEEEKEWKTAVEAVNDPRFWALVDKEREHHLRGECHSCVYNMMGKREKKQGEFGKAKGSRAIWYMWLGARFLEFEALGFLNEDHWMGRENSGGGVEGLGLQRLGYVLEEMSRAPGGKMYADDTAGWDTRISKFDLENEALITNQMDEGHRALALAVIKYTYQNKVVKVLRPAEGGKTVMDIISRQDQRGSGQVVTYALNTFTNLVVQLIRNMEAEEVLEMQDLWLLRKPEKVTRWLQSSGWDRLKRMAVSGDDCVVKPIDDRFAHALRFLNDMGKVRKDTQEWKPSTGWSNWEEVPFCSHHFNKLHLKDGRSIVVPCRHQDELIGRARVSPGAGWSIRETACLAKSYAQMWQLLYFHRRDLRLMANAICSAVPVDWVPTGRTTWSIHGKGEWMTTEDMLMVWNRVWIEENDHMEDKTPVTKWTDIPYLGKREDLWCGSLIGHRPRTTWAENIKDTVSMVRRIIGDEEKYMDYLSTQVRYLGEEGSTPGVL

As usually defined, the EC50 is the concentration at which the effect is half-maximal. In series [1], `C[C@@]1(O)[C@H](O)[C@@H](CO)O[C@H]1n1ccc2c(N)ncnc21` [7-deaza-2′-CMA, 7-deaza-2′-C-methyladenosine, reference compound] gave a CC50 greater than 50 µM. The 50% effective concentration (EC50) in series [2] was found to be 0.43 ± 0.06 µM.

A word on the IC50: it is the concentration that gives 50% inhibition. On to `Cc1c(C)c2c(c3c1CC[n+]1ccc(/C=C4\Sc5ccccc5N4C)cc1-3)-c1cccc(/C=C3\Sc4ccccc4N3C)[n+]1CC2` [PR673], for which the 50% inhibitory concentration (IC50) stood at 3 ± 0.1 µM in [3]; 3.1 ± 0.2 µM in series [8]; 3.4 ± 0.2 µM in series [14]; 3.6 ± 0.2 µM in series [15]; 4 ± 0.2 µM in series [16]; 4.9 ± 0.5 µM in series [17]. The half-inhibitory concentration (IC50) in series [18] was found to be 3.9 ± 0.4 µM. Moreover, in series [4], the “inhibition of RNA synthesis by flaviviral RdRps” value is “strong inhibition of RNA synthesis in low micromolar concentrations”. For the same molecule, the “cytotoxicity at the highest used concentration” value in series [5] and in series [11] was “mild cytotoxicity” each time. Further, the CC50 at 3 days in series [6] and in series [12] was greater than 50 µM each time. The “inhibition of virus replication (virus-induced CPE) in screen” value in series [7] is on record as “inhibited the replication of the virus”. The half-maximal effective concentration (EC50) in series [9] came out at 18 µM; in series [2], 0.11 µM; in [19] it was 29 µM; in [20] it was 17 µM. Besides, in series [1], the CC50 was greater than 50 µM. Besides, the “PR673 concentration at which synthesis of RNA was totally blocked” value in series [10] was “above 12.5 µM”. In series [13], the cell toxicity result is on record as “no cell toxicity”. In addition, the “anti-TBEV activity in comparison to 7-deaza-2′-CMA” value in [2] was “almost four-fold higher”. For the same molecule, the “compound concentration of complete inhibition of TBEV replication” value in series [2] is 0.4 µM. Also, in series [21], the “activity compared with remdesivir in yield reduction assay” value is “much less active than the COVID-19 drug remdesivir”. Further, the “reduction in viral plaques” value in series [21] (at 50 µM) worked out at 58%.
